We go through 33 molecules from article PMC12751012, “Nanoscale Direct-to-Biology Optimization and Structural Insights into Selective S. aureus TrmD Inhibitors” (Journal of Medicinal Chemistry, 2025).

The target of the experiment is T1, S. aureus TrmD (Staphylococcus aureus, UniProt Q2FZ43).
T1 construct: made in house; host or cells: E. coli BL21
T1 sequence (Q2FZ43 1-245): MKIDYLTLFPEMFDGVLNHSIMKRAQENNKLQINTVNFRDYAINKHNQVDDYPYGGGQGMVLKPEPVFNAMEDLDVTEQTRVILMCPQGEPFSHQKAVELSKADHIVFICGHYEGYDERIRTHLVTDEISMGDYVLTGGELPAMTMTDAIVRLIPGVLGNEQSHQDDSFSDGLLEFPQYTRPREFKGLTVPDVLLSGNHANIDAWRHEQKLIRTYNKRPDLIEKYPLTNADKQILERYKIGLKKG
The experiment can be described thus: nanoSAR direct-to-biology FP displacement screening of crude triazoles. Format: binding. The conditions noted are these: crude triazole at 1 μM, assuming full conversion; 500 nM TrmD, 10 nM tracer 4; read-out: % displaced tracer. An excerpt: Next, we conducted an S. aureus TrmD-targeting nanoSAR study. For this, alkyne 7 was reacted on a 96 nmol scale with an in-house diversity-oriented azide library (N = 320, mean pairwise Tanimoto similarity = 0.11) designed to cover a large chemical fragment space, generating a panel of 320 crude triazoles ready for FP assay investigation. The composition of the azide library is designed to be chemically diverse in several categories, including physicochemical properties such as polar surface area, lipophilicity, and the number of hydrogen bond donors and acceptors, as well as structural features like the number of aromatic rings (Figure S23). A complete list of chemical structures included in the azide library can be found in Table S4. In situ reaction conditions for CuAAC were adapted from Gehrtz et al., utilizing CuSO4, which is reduced in situ to Cu(I) by sodium ascorbate and stabilized by TBTA. Degassed water and DMSO (1:1) were used as solvents to prevent the oxidation from Cu(I) to Cu(II). For the synthesis of the triazole library, a master mix was prepared, containing all reaction components except the azides. All reactions were started by the addition of the respective azide in 24 μL at a final product concentration of 4 mM (96 nmol). Reaction mixtures were incubated for 16 h at room temperature and under an argon atmosphere in sealed 96-well plates.
For FP assay screening, we used 500 nM of S. aureus TrmD and 10 nM of tracer 4 in a total volume of 40 μL in 96-well plates. We performed control measurements and defined 10 nM of tracer 4 in buffer as 100% displacement and the DMSO control as 0% tracer displacement. […] The results of the FP screening were visualized in a waterfall plot and plate-based heatmaps (Figure , Figure S3).
Fluorescence polarization (FP) assays were performed as follows. The assays for H. influenzae TrmD have been described previously. All assays were conducted in technical triplicate using black 96-well half area plates. For the FP assays, a tracer (20 nM Cy5TPD for E. coli and H. influenzae TrmD, 10 nM tracer 4 for S. aureus TrmD) was mixed with the respective enzyme (2 μM E. coli TrmD, 2 μM H. influenzae TrmD, 500 nM S. aureus TrmD) in buffer (E. coli and H. influenzae TrmD: 50 mM HEPES, 500 mM NaCl, 5% Glycerol, pH 7.5, S. aureus TrmD: 40 mM Tris HCl, 100 mM NaCl, 10 mM MgCl2, 5% Glycerol, pH 7.5). The compounds were added in varying concentrations for K D-value determination. […] The Z-factor for tracer 4 was determined by measuring 48 replicates of the free tracer (positive controls, PC) and 48 replicates of a mixture of enzyme and tracer (negative controls, NC). The Z-factor is defined in terms of the means (μ) and standard deviations (σ) of the positive and negative controls and calculated as Z = 1–(3*(σnc + σpc)/(μnc–μpc)). […] Polarization values (mP) were determined from polarization-specific parallel and orthogonal fluorescence intensities. K D-values were calculated in GraphPad Prism 8.0.1 using the four-parameter Hill equation: y(% tracer bound) = bottom + ([ligand]-slope) × (top–bottom)/([ligand]-slope + K Dslope).
A commercial azide diversity library (Enamine) containing 320 azides at a concentration of 100 mM in DMSO in a 96-well tube rack was employed for this nanoSAR study. For the reaction of the azides with alkyne 7 via CuAAC, a master mix was prepared. […] The solvents were degassed with argon to avoid oxidation of the copper(I) during the reaction. To each well of a 96-well PCR plate (Applied Biosystems MicroAmp) were added 23 μL of the master mix and 1 μL of the 100 mM azide stock. The final concentrations in the Mastermix were: 8.7 mM sodium ascorbate (8.3 mM in reaction well), 1.1 mM TBTA (1.0 mM in reaction well), 4.3 mM 7 (4.1 mM in reaction well), 1.3 mM CuSO4×5 H2O (1.2 mM in reaction well).

For `N#Cc1ccc(-n2cc(-c3c[nH]c4nc[nH]c(=O)c34)nn2)cc1` [Compound 02D05, O=C1NC=NC=2NC=C(C=3N=NN(c4ccc(C#N)cc4)C3)C12], the inhibition at 1 µM is 1.83%.

Take `CC(C)C(=O)NCCn1cc(-c2c[nH]c3nc[nH]c(=O)c23)nn1` [Compound 02D07, O=C1NC=NC=2NC=C(C=3N=NN(C3)CCNC(=O)C(C)C)C12]: the inhibition at 1 µM worked out at 41%.

As to `O=c1[nH]cnc2[nH]cc(-c3cn(Cc4cccs4)nn3)c12` [Compound 02B07, S1C(=CC=C1)CN2N=NC(C=3C=4C(=O)NC=NC4NC3)=C2], the inhibition at 1 µM turned out to be 85%.

In the case of `C[C@H]1CCCC[C@]1(C)n1cc(-c2c[nH]c3nc[nH]c(=O)c23)nn1` [Compound 04D02, O=C1NC=NC=2NC=C(C=3N=NN(C3)[C@@]4([C@H](CCCC4)C)C)C12], the inhibition at 1 µM turned out to be 27%.

`O=c1[nH]cnc2[nH]cc(-c3cn([C@@H]4CCCc5cccnc54)nn3)c12` [Compound 02G11, O=C1NC=NC=2NC=C(C=3N=NN(C3)[C@H]4c5ncccc5CCC4)C12]: the inhibition at 1 µM amounted to 18%.

In the case of `O=C(NCCCn1cc(-c2c[nH]c3nc[nH]c(=O)c23)nn1)c1c[nH]nn1` [Compound 02B11, O=C1NC=NC=2NC=C(C=3N=NN(C3)CCCNC(=O)C=4N=NNC4)C12], the inhibition at 1 µM came to 10%.

As for `O=C(c1ccco1)n1cc(-c2c[nH]c3nc[nH]c(=O)c23)nn1` [Compound 01G07, O=C(N1N=NC(C=2C=3C(=O)NC=NC3NC2)=C1)C=4OC=CC4], the inhibition at 1 µM stood at 28%.

For the molecule `O=c1[nH]cnc2[nH]cc(-c3cn(C4CNC4)nn3)c12` [Compound 03F12, O=C1NC=NC=2NC=C(C=3N=NN(C3)C4C[NH2+]C4)C12], the inhibition at 1 µM turned out to be 42%.

In the case of `O=c1[nH]cnc2[nH]cc(-c3cn(Cc4noc5c4CCC5)nn3)c12` [Compound 01C04, O=C1NC=NC=2NC=C(C=3N=NN(C3)CC4=NOC5=C4CCC5)C12], the inhibition at 1 µM stood at 41%.

As to `O=c1[nH]cnc2[nH]cc(-c3cn(C[C@H]4CCCO4)nn3)c12` [Compound 01C06, O=C1NC=NC=2NC=C(C=3N=NN(C3)C[C@@H]4OCCC4)C12], the inhibition at 1 µM came out at 24%.

For the molecule `O=c1[nH]cnc2[nH]cc(-c3cn([C@H]4CCCCC[C@@H]4O)nn3)c12` [Compound 02E03, O=C1NC=NC=2NC=C(C=3N=NN(C3)[C@@H]4[C@@H](O)CCCCC4)C12], the inhibition at 1 µM is 10%.

In the case of `Cc1cc(C)cc(-n2cc(-c3c[nH]c4nc[nH]c(=O)c34)nn2)c1` [Compound 03B05, O=C1NC=NC=2NC=C(C=3N=NN(c4cc(cc(c4)C)C)C3)C12], the inhibition at 1 µM stood at 24%.

With `O=c1[nH]cnc2[nH]cc(-c3cn(C4(C(F)F)CC4)nn3)c12` [Compound 02A12, FC(F)C1(N2N=NC(C=3C=4C(=O)NC=NC4NC3)=C2)CC1], the inhibition at 1 µM came out at 18%.

In the case of `CS(=O)(=O)c1cc(Cn2cc(-c3c[nH]c4nc[nH]c(=O)c34)nn2)cc(C(F)(F)F)c1` [Compound 03A01, S(=O)(=O)(c1cc(cc(c1)CN2N=NC(C=3C=4C(=O)NC=NC4NC3)=C2)C(F)(F)F)C], the inhibition at 1 µM came out at 63%.

`O=c1[nH]cnc2[nH]cc(-c3cn(CCN4CCC(O)CC4)nn3)c12` [Compound 01H11, O=C1NC=NC=2NC=C(C=3N=NN(C3)CC[N@H+]4CC[C@H](O)CC4)C12]: the inhibition at 1 µM was determined as 38%.

As for `CN(C)CCCn1cc(-c2c[nH]c3nc[nH]c(=O)c23)nn1` [Compound 01E08, O=C1NC=NC=2NC=C(C=3N=NN(C3)CCC[NH+](C)C)C12], the inhibition at 1 µM worked out at 35%.

In the case of `COC(=O)c1ccc(Cn2cc(-c3c[nH]c4nc[nH]c(=O)c34)nn2)o1` [Compound 01G08, O=C(OC)C=1OC(=CC1)CN2N=NC(C=3C=4C(=O)NC=NC4NC3)=C2], the inhibition at 1 µM was found to be 44%.

Take `O=c1[nH]cnc2[nH]cc(-c3cn(CCCN4CCSCC4)nn3)c12` [Compound 02H07, S1CC[NH+](CC1)CCCN2N=NC(C=3C=4C(=O)NC=NC4NC3)=C2]: the inhibition at 1 µM was 59%.

With `COCCn1cc(-c2c[nH]c3nc[nH]c(=O)c23)nn1` [Compound 03C11, O=C1NC=NC=2NC=C(C=3N=NN(C3)CCOC)C12], the inhibition at 1 µM turned out to be 29%.

As to `O=c1[nH]cnc2[nH]cc(-c3cn([C@@H]4CCc5c(F)cccc54)nn3)c12` [Compound 03H04, Fc1c2c(ccc1)[C@H](N3N=NC(C=4C=5C(=O)NC=NC5NC4)=C3)CC2], the inhibition at 1 µM was 68%.

For `CC1(Cn2cc(-c3c[nH]c4nc[nH]c(=O)c34)nn2)COC1` [Compound 01H02, O=C1NC=NC=2NC=C(C=3N=NN(C3)CC4(COC4)C)C12], the inhibition at 1 µM was 58%.

As to `O=c1[nH]cnc2[nH]cc(-c3cn(-c4ccc5c(c4)OCO5)nn3)c12` [Compound 03C05, O=C1NC=NC=2NC=C(C=3N=NN(c4cc5OCOc5cc4)C3)C12], the inhibition at 1 µM came to 59%.

On to `O=c1[nH]cnc2[nH]cc(-c3cn(C[C@H]4OCCOC45CCC5)nn3)c12` [Compound 01D02, O=C1NC=NC=2NC=C(C=3N=NN(C3)C[C@H]4OCCOC45CCC5)C12], for which the inhibition at 1 µM is 61%.

`COc1ccccc1[C@H](O)Cn1cc(-c2c[nH]c3nc[nH]c(=O)c23)nn1` [Compound 03G07, O=C1NC=NC=2NC=C(C=3N=NN(C3)C[C@@H](O)c4c(OC)cccc4)C12]: the inhibition at 1 µM came to 37%.

Regarding `COc1ccc(Cn2cc(-c3c[nH]c4nc[nH]c(=O)c34)nn2)cc1` [Compound 02E05, O=C1NC=NC=2NC=C(C=3N=NN(C3)Cc4ccc(OC)cc4)C12], the inhibition at 1 µM amounted to 78%.

Take `O=c1[nH]cnc2[nH]cc(-c3cn(C[C@H]4COc5ccccc5O4)nn3)c12` [Compound 02A07, O=C1NC=NC=2NC=C(C=3N=NN(C3)C[C@@H]4Oc5c(OC4)cccc5)C12]: the inhibition at 1 µM stood at 81%.

For the molecule `Cc1ccc(-n2cc(-c3c[nH]c4nc[nH]c(=O)c34)nn2)nc1` [Compound 03F10, O=C1NC=NC=2NC=C(C=3N=NN(c4ncc(cc4)C)C3)C12], the inhibition at 1 µM came to 18%.

Regarding `CC(C)Cn1cc(-c2c[nH]c3nc[nH]c(=O)c23)nn1` [Compound 02F06, O=C1NC=NC=2NC=C(C=3N=NN(C3)CC(C)C)C12], the inhibition at 1 µM was determined as 1.22%.

In the case of `COc1cccc(-n2cc(-c3c[nH]c4nc[nH]c(=O)c34)nn2)c1` [Compound 03G01, O=C1NC=NC=2NC=C(C=3N=NN(c4cc(OC)ccc4)C3)C12], the inhibition at 1 µM stood at 11%.

With `O=c1[nH]cnc2[nH]cc(-c3cn(C[C@@H]4CCCN4)nn3)c12` [Compound 03C09, O=C1NC=NC=2NC=C(C=3N=NN(C3)C[C@H]4[NH2+]CCC4)C12], the inhibition at 1 µM was found to be 58%.

Take `C[C@@H](c1cnnn1C)n1cc(-c2c[nH]c3nc[nH]c(=O)c23)nn1` [Compound 01C01, O=C1NC=NC=2NC=C(C=3N=NN(C3)[C@H](C=4N(N=NC4)C)C)C12]: the inhibition at 1 µM is 33%.

For `O=c1[nH]cnc2[nH]cc(-c3cn([C@H]4CC[C@@H]4O)nn3)c12` [Compound 01D04, O=C1NC=NC=2NC=C(C=3N=NN(C3)[C@@H]4[C@@H](O)CC4)C12], the inhibition at 1 µM was 21%.

With `NCCCn1cc(-c2c[nH]c3nc[nH]c(=O)c23)nn1` [Compound 03E10, O=C1NC=NC=2NC=C(C=3N=NN(C3)CCC[NH3+])C12], the inhibition at 1 µM stood at 68%.
